According to ChEMBL document CHEMBL4118092, “Synthesis and Activity of a New Series of Antileishmanial Agents” (ACS Med Chem Lett, 2017):

Key:
[1] = test system: Leishmania donovani; assay: Antileishmanial activity against Leishmania donovani axenic amastigotes after 72 hrs by CellTiter reagent based assay; type: functional, organism-based
[2] = test system: Leishmania donovani; assay: Antileishmanial activity against Leishmania donovani axenic amastigotes infected in mouse J774 cells after 72 hrs by Draq5 staining based assay; type: functional, organism-based; conditions: J774, 72 h
[3] = test system: J774.A1; assay: Cytotoxicity against mouse J774.A1 cells after 72 hrs by MTS assay; type: cell-based; conditions: J774.A1, 72 h
[4] = Kinetic solubility of the compound in pH 7.4 PBS buffer; type: physicochemical; conditions: read-out: Kinetic_solubility

Row | SMILES | IC50 [1] [µM] | IC50 [2] [µM] | IC50 [3] [µM] | solubility kinetic [4] [µM]
1 | COCCCNc1cc(-n2nc(C)c3c2CN(C(N)=O)CC3=O)ccc1C(N)=O | > 20 | > 10 | > 50 | 
2 | COCCCNc1cc(-n2nc(C)c3c2CCCC3=O)ccc1C(N)=O | > 25 | > 10 | > 50 | 
3 | COCCCNc1cc(-n2nc(C)c3c2CN(C(C)=O)CC3=O)ccc1C(N)=O | 13.9 | 1.06 | > 50 | > 490
4 | Cc1nn(-c2ccc3c(N)ncnc3c2)c2c1C(=O)CC(C)(C)C2 | 2.42 | 1.33 | > 50 | 
5 | COCCCNc1cc(-n2nc(C)c3c2CN(C(=O)COC)CC3=O)ccc1C(N)=O | 4.48 | 3.58 | > 50 | 
6 | COCCCNc1cc(-n2nc(C)c3c2CNCC3=O)ccc1C(N)=O | 3.9 | > 10 | > 50 | 
7 | COCCCNc1cc(-n2nc(C)c3c2CN(C(=O)C2CCCC2)CC3=O)ccc1C(N)=O | 2.99 | 1.52 | > 50 | 
8 | CCC(=O)N1CC(=O)c2c(C)nn(-c3ccc(C(N)=O)c(NCCCOC)c3)c2C1 | 6.43 | 3.54 | > 50 | 
9 | C[C@@H]1C[C@H]2O[C@@H]2/C=C\C=C\C(=O)Cc2c(Cl)c(O)cc(O)c2C(=O)O1 [RADICICOL] | 0.62 | 0.29 | 2.35 | 
10 | CC1(C)CC(=O)c2c(C(F)(F)F)nn(-c3ccc(C(N)=O)c(N[C@H]4CC[C@H](O)CC4)c3)c2C1 [SNX-2112] | 0.42 | 0.61 | < 0.06 | 
11 | COCCCNc1cc(-n2nc(C)c3c2CC(C)(C)CC3=O)ccc1C(N)=O | 0.65 | 0.88 | 3.52 | 
12 | COCCCNc1cc(-n2nc(C)c3c2CN(C(=O)c2ccc(C)cc2)CC3=O)ccc1C(N)=O | 2.6 | 1.75 | 26.3 | 
13 | CCCCCCCCCCCCCCCCOP(=O)([O-])OCC[N+](C)(C)C [MILTEFOSINE] | 3.26 | 1.43 | > 50 | 
14 | COCCCNc1cc(-n2nc(C)c3c2CN(Cc2ccccc2)CC3=O)ccc1C(N)=O | 2.29 | 6.33 | > 50 | 
15 | COCCCNc1cc(-n2nc(C)c3c2CN(C(=O)NCc2ccccc2)CC3=O)ccc1C(N)=O | > 20 | > 10 | > 50 | 
16 | COCCCNc1cc(-n2nc(C)c3c2CN(S(C)(=O)=O)CC3=O)ccc1C(N)=O | > 20 | 5.38 | 25.5 | 
17 | COCCCNc1cc(-n2nc(C)c3c2CN(C(=O)C(C)C)CC3=O)ccc1C(N)=O | 1.9 | 3.54 | 37.3 | 
